Earlier results, collected in patent publication US11111250B2 (SHILPA MEDICARE LIMITED, priority 2017, dated 2021).

What was measured:
[1] = aqueous media, pH dependence
[2] = long term and accelerated stability studies, stored in the proposed packaging

| Substance | solubility [1] | polymorphic stability [2] |
| --- | --- | --- |
| Ribociclib mono succinate | soluble in acidic aqueous media, becoming less soluble as pH increases |  |
| Ribociclib mono succinate [Ribociclib mono succinate form A] |  | stable and not to convert into other polymorphic forms |
